Here are results for two molecules from patent publication US20260002166A1, “GENETIC ENGINEERING OF MARINE BACTERIA FOR BIOMATERIAL PRODUCTION, PROBIOTIC USE IN AQUACULTURE AND MARINE ENVIRONMENTAL RESTORATION” (San Diego State University (SDSU) Foundation, dba San Diego …, priority 2022, published 2026).

One data set concerns sea urchin. The following applies: [32]; cited from earlier work.
For data set [1], the system named is two other types of invertebrate larvae. The conditions noted are these: two other types of invertebrate larvae [29]; cited from earlier work.
The subject of another data set is phytoplankton. The following applies: [31]; cited from earlier work.
The subject of data set [2] is Pacific and Atlantic corals. The following applies: synthesized TBP; cited from earlier work.
Data set [3] has as its system Photobacterium mandapamensis svers.3.2 (MT002). In words: Minimum inhibitory concentration of kanamycin. The data set is classed as cell-based. The conditions noted are these: Photobacterium leiognathi, Photobacterium mandapamensis svers.3.2, Wild type. As for the experimental part:
(§1) • 1. Streak out marine microbes onto Marine Agar plates and incubate overnight at 25° C.-28° C. Some strains take longer to grow to single colonies. Incubation times longer than 24 hours may be required for some slower growing strains. Monitor growth in future steps accordingly.
(§2) • 2. Inoculate a single colony into 5 mL Marine Broth (2216) media in the late afternoon/early evening. Incubate overnight at 25 C, shaking at 200 rpm.
(§3) • 3. Measure optical density (OD600) of overnight culture growth and document. • 4. Pipette 100 μL of overnight culture from each strain onto Marine Agar plates containing either Strep (for background resistance), Kan (MIC), Gent (MIC) at each concentration (25 μg/mL, 50 μg/mL, 100 μg/mL and 200 μg/mL). • 5. Use beads or plate spreader to spread the culture evenly on the plate. Remove the beads and incubate overnight at 25° C. overnight.
(§4) • 6. Observe and document growth on all concentration plates. For the MICs (Kan/Gent) identify the lowest concentration of media in which no colonies are observed. If there are no colonies at any concentration, screen lower concentrations of Kanamycin/Gentamicin in the media (i.e. 5, 10, 15, 20 μg/mL). • 7. For the Streptomycin Resistant strain, select a single colony from the highest dose of Streptomycin that has growth and streak it out onto a plate containing the same concentration and a plate containing the next highest concentration of antibiotics. Incubate overnight at 25 C.
(§5) • 8. Observe and document growth on both the MIC plates (2 days old) and the Streptomycin resistance plates. If Streptomycin resistance is sustained at less than 200 μg/mL, then continue step 7, passaging the strains onto higher concentrations of antibiotics. Once robust growth occurs at 200 μg/mL, inoculate a single colony into 5 mL Marine Broth containing Strep 200 μg/mL and incubate 25° C. overnight, shaking at 200 rpm.

Data set [4] concerns Ruegeria pomeroyi DSS-3 (NJS409). In words: Minimum inhibitory concentration of kanamycin. The data set is classed as cell-based. The conditions noted are these: Ruegeria pomeroyi DSS-3, Wild type. Here is the method:
as §1, §2, §3, §4, §5

Data set [5] concerns Vibrio harveyi (NJS675, StrR). In words: Minimum inhibitory concentration of kanamycin. The conditions noted are these: read-out: MIC Kan. The data set is classed as cell-based. As for the experimental part: as §1, §2, §3, §4, §5
Data set [6] relates to Phaeobacter gallaeciensis ATCC 700781 (DSM 26640) (NJS408, Wild type). Briefly: Minimum inhibitory concentration of kanamycin. The data set is classed as cell-based. The following applies: Phaeobacter gallaeciensis ATCC 700781, Wild type. As for the experimental part:
as §1, §2, §3, §4, §5

The subject of another data set is Cobetia sp. MMG (NJS775). Briefly: Minimum inhibitory concentration of kanamycin. In kind it is cell-based. The conditions noted are these: Wild type. Here is the method: as §1, §2, §3, §4, §5
Data set [7] deals with Nereida sp. MMG025 (NJS678). In words: Minimum inhibitory concentration of kanamycin. The following applies: Nereida sp. MMG025, Wild type. In kind it is cell-based. As for the experimental part:
as §1, §2, §3, §4, §5

Data set [8] concerns Pseudoalteromonas sp. PS5 (NJS597, StrR). Briefly: Minimum inhibitory concentration of kanamycin. The data set is classed as cell-based. The conditions noted are these: read-out: MIC Kan. Here is the method: as §1, §2, §3, §4, §5
In data set [9] the test system is Pseudoalteromonas luteoviolacea HI1 (NJS005, StrR). In words: Minimum inhibitory concentration of kanamycin. In kind it is cell-based. The conditions noted are these: read-out: MIC Kan. Here is the method:
as §1, §2, §3, §4, §5

For data set [10], the system named is Endozoicomonas montiporae CL-33 (NJS662). In words: Minimum inhibitory concentration of kanamycin. The data set is classed as cell-based. The following applies: Endozoicomonas montiporae CL-33, Wild type. Here is the method:
as §1, §2, §3, §4, §5

The test system of data set [11] is Leisingera sp. 204H (NJS204, Wild type). Briefly: Minimum inhibitory concentration of kanamycin. In kind it is cell-based. As for the experimental part: as §1, §2, §3, §4, §5
The subject of data set [12] is Phaeobacter sp. HS012 (NJS491). Briefly: Minimum inhibitory concentration of kanamycin. In kind it is cell-based. The conditions noted are these: Phaeobacter sp. HS012, Wild type. Here is the method: as §1, §2, §3, §4, §5
The next data set concerns Shimia sp. MMG (NJS302). Briefly: Minimum inhibitory concentration of kanamycin. The data set is classed as cell-based. The following applies: Wild type. Here is the method:
as §1, §2, §3, §4, §5

Each structure is given as a SMILES string. In brackets after ≈: the same amount, converted by molar mass.

Usually MIC stands for the lowest concentration found to suppress growth.

For the molecule `Brc1[nH]c(Br)c(Br)c1Br` [TBP, tetrabromopyrrole], the Sea urchin development result in the data set with sea urchin is on record as “halts sea urchin development”. Moreover, the “Metamorphosis in other invertebrate larvae” value in data set [1] was “not eliciting robust metamorphosis”. Moreover, in the data set on phytoplankton, the Phytoplankton mortality entry is reported as “elicits phytoplankton mortality”. Besides, in data set [2], the “Induction of coral metamorphosis” value is reported as “induce robust metamorphosis”.

Regarding `NC[C@H]1O[C@H](O[C@H]2[C@H](O)[C@@H](O[C@H]3O[C@H](CO)[C@@H](O)[C@H](N)[C@H]3O)[C@H](N)C[C@@H]2N)[C@H](O)[C@@H](O)[C@@H]1O` [Kan, kanamycin], the MIC in data set [3] was determined as 400 µg/mL (≈ 826 µM); in data set [4], 300 µg/mL (≈ 619 µM); in data set [5], 200 µg/mL (≈ 413 µM); in data set [6], 300 µg/mL (≈ 619 µM); in the data set on Cobetia sp. MMG (NJS775), 200 µg/mL (≈ 413 µM); in data set [7], 200 µg/mL (≈ 413 µM). The MIC in data set [8] is 200 µg/mL (≈ 413 µM); in data set [9], 200 µg/mL (≈ 413 µM); in data set [10], 100 µg/mL (≈ 206 µM); in data set [11], 200 µg/mL (≈ 413 µM); in data set [12] it was 300 µg/mL (≈ 619 µM); against Shimia sp. MMG (NJS302), 300 µg/mL (≈ 619 µM).
